Results taken from patent US20110182949A1, “STABILIZED TRANSDERMAL DRUG DELIVERY SYSTEM” (priority 2008, published 2011).

Test: Glass transition temperature (DSC)
Assay type: physicochemical
Settings: amorphous drug, dispersed in patch or undispersed
Method: Example 1: To a glass jar Plastone 29/32 (12 g) and ethanol (7.56 g) were added. The admixture was mixed with a spatula, heated and sonicated in a water bath at 45° C. until a viscous solution was formed. To the solution was added scopolamine base (4.00 g). The admixture was mixed with a spatula, heated, sonicated and swirled until a clear viscous solution was formed. After the solution was cooled for a while, Dow Corning silicone adhesive 7-4302 (40.82 g, 60% solid) and ethyl acetate (8.34 g) were added. The material was quickly mixed at high shear to provide a cream-like uniform suspension. After air bubbles were removed by rolling overnight, the suspension was coated to a release liner, dried at room temperature for 5 minutes, in an oven set at 40° C. for 5 minutes and in an oven set at 85° C. for 5 minutes to form a thin layer of adhesive on release liner. A backing film Mediflex® 1502 was laminated to the adhesive side. Individual patches were die-cut and pouched.

Row | Compound | glass transition temperature (Tg)
1 | O=C1CC[C@@]2(O)[C@H]3Cc4ccc(O)c5c4[C@@]2(CCN3CC2CC2)[C@H]1O5 [naltrexone] | 79.5 °C
2 | CN1[C@@H]2C[C@@H](OC(=O)[C@H](CO)c3ccccc3)C[C@H]1[C@@H]1O[C@@H]12 [undispersed amorphous scopolamine, scopolamine] | about 10 °C
